{"source": "patent US20120237600A1", "about": "“MULTILAYER PHARMACEUTICAL COMPOSITION THAT CAN BE DISPERSED IN WATER AND WHICH CONTAINS A COMBINATION OF ANTIMALARIAL AGENTS” (SANOFI, priority 2009, published 2012)", "assay": "Compatibility of artesunate and ferroquine combined within one and the same tablet", "type": "physicochemical", "settings": "color of artesunate goes from white to brown", "excerpt": "However, artesunate and ferroquine are strongly incompatible if the two active ingredients are combined within one and the same tablet.", "data": [{"compound": "C[C@H]1[C@H](OC(=O)CCC(=O)O)O[C@@H]2O[C@@]3(C)CC[C@H]4[C@H](C)CC[C@@H]1[C@@]24OO3", "note": "[artesunate, Artesunate]", "values": [{"measurement": "stability of artesunate when combined with ferroquine within the same tablet", "result": "rapid increase in the level of artesunate degradation products"}]}]}
